Consider 10 molecules from ChEMBL document CHEMBL5113446, “Design, synthesis and biological evaluation of novel aminopropylcarboxamide derivatives as sigma ligands” (Bioorg Med Chem Lett, 2022).

Some results are limits rather than exact numbers.

Experiment [1] concerns the target Sigma intracellular receptor 2 (Homo sapiens, UniProt Q5BJF2). The experiment can be described thus: Binding affinity to sigma 2 receptor (unknown origin) assessed as inhibition constant by radioligand binding assay.
The target of experiment [2] is Kappa-type opioid receptor (Homo sapiens, UniProt P41145). The experiment can be described thus: Binding affinity to KOR (unknown origin) assessed as inhibition constant by radioligand binding assay.
Kappa-type opioid receptor, sequence (P41145 whole entry): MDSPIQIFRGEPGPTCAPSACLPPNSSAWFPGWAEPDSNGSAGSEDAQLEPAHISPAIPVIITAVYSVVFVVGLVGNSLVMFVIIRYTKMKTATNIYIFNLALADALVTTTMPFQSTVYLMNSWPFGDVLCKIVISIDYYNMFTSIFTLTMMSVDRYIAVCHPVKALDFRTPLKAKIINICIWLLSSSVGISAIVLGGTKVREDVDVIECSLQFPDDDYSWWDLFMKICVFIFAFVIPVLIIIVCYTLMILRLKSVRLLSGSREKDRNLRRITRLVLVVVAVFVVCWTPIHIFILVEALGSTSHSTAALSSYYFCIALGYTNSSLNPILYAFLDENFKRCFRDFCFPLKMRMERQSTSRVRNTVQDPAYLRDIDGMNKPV
The target in experiment [3] is Sigma non-opioid intracellular receptor 1 (Homo sapiens, UniProt Q99720). The experiment can be described thus: Binding affinity to sigma 1 receptor (unknown origin) assessed as inhibition constant by radioligand binding assay.
Sigma non-opioid intracellular receptor 1, sequence (Q99720 whole entry): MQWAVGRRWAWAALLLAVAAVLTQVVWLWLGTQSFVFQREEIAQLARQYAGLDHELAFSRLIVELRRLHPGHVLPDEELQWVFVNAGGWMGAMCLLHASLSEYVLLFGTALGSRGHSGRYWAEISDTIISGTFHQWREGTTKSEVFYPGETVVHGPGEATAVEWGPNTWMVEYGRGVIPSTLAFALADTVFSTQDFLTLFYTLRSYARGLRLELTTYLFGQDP
Experiment [4] addresses Delta-type opioid receptor (Homo sapiens, UniProt P41143). The experiment can be described thus: Binding affinity to DOR (unknown origin) assessed as inhibition constant by radioligand binding assay.
For a further experiment, the target named is Mu-type opioid receptor (Homo sapiens, UniProt P35372). The experiment can be described thus: Binding affinity to MOR (unknown origin) assessed as inhibition constant by radioligand binding assay.
Mu-type opioid receptor, sequence (P35372 whole entry): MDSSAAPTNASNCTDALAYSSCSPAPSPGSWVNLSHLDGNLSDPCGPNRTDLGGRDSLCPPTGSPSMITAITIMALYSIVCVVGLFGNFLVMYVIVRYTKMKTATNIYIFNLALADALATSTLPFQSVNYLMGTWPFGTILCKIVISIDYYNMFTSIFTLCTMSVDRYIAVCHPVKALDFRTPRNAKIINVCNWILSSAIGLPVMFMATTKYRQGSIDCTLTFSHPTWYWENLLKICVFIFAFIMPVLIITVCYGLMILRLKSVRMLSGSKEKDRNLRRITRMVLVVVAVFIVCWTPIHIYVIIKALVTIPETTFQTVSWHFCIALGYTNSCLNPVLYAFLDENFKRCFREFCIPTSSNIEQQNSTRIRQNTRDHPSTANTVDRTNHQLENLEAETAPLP
For another experiment, the species on record is Homo sapiens. The experiment can be described thus: Selectivity index, ratio of Ki for sigma 1 receptor (unknown origin) to Ki for sigma 2 receptor (unknown origin).
In experiment [5] the test system is MCF7. The experiment can be described thus: Cytotoxicity against ER/PR-positive HER2-negative human MCF7 cells harbouring […] assessed as inhibition of cell growth incubated for 48 hrs by resazurin dye based assay. It counts as functional. Particulars: MCF7, 48 h. A general note: Alamar Blue is a resazurin reagent that responds to reducing activity.

Experiment [6] has as its system SK-BR-3. The experiment can be described thus: Cytotoxicity against ER/PR-negative HER2-positive human SK-BR-3 cells harbouring […] assessed as reduction in cell viability at 100 to 200 uM incubated for 48 hrs by resazurin dye based assay relative to control. Format: functional. To be noted: dose 100-200 µM.
The subject of experiment [7] is SK-BR-3. The experiment can be described thus: Cytotoxicity against ER/PR-negative HER2-positive human SK-BR-3 cells harbouring […] assessed as inhibition of cell growth incubated for 48 hrs by resazurin dye based assay. It counts as functional. To be noted: SK-BR-3, 48 h.
The test system of experiment [8] is MCF7. The experiment can be described thus: Cytotoxicity against ER/PR-positive HER2-negative human MCF7 cells harbouring […] assessed as reduction in cell viability at 100 uM incubated for 48 hrs by resazurin dye based assay relative to control. It counts as functional.

Delta-type opioid receptor, sequence (P41143 whole entry): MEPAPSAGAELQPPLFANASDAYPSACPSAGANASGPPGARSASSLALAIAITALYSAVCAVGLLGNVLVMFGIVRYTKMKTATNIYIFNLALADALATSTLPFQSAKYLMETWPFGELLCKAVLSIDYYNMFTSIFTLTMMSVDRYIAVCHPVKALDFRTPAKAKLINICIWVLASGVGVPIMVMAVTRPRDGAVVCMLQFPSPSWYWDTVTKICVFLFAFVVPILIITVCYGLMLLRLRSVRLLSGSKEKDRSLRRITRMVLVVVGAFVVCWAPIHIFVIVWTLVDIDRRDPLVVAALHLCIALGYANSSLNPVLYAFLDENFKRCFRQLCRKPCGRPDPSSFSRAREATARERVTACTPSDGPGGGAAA
Sigma intracellular receptor 2, sequence (Q5BJF2 whole entry): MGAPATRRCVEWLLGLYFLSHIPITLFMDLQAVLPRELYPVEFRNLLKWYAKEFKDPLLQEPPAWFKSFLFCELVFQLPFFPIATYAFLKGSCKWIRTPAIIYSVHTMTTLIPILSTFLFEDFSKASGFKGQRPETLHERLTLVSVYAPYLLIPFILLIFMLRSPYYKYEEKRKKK

On to `COc1ccc(CN(C)CCCNC(=O)c2ccco2)cc1OC`, for which the Ki in experiment [1] was > 5 µM; in [2], 4.17 µM; in experiment [3], > 10 µM; in [4] it was > 10 µM; at Mu-type opioid receptor, > 10 µM.
For `CN(CCCNC(=O)c1ccc2ccccc2c1)Cc1ccccc1`, the inhibition constant (Ki) in experiment [1] was 0.106 µM; in [2], > 10 µM; in [3], 0.104 µM; in [4], > 10 µM; on Mu-type opioid receptor it was 3.43 µM. The Ratio Ki in the experiment filed under Homo sapiens was found to be 1.
Take `COc1ccc(CN(C)CCCNC(=O)c2ccc3ccccc3c2)cc1OC`: the Ki in experiment [1] is 0.126 µM; in experiment [2] it was > 10 µM; in experiment [3] it was 1.44 µM; in [4] it was > 10 µM; at Mu-type opioid receptor, 1.22 µM. The Ratio Ki in the experiment filed under Homo sapiens worked out at 11.
Consider `CN(CCCNC(=O)c1cc2ccccc2o1)Cc1ccccc1`, for which the concentration for half-maximal inhibition (IC50) amounted to 86 µM in the experiment on MCF7 [5] (read-out: IC50) and 52 µM with SK-BR-3 [7]. In addition, the results for the Activity with SK-BR-3 [6] and in the experiment on MCF7 [8] were 50% and “<=50%”, respectively. In addition, the Ki in experiment [1] was 0.0099 µM; in experiment [2], 2.39 µM; in [3], 0.012 µM; in experiment [4] it was > 10 µM; at Mu-type opioid receptor it was 1.77 µM. Also, the Ratio Ki in the experiment filed under Homo sapiens was found to be 1.2.
Consider `COc1ccc(CN(C)CCCNC(=O)c2ccc3ccccc3n2)cc1OC`, for which the IC50 in the experiment on MCF7 [5] (read-out: IC50) worked out at 251 µM; with SK-BR-3 [7] it was 88 µM. For the same molecule, the Activity result with SK-BR-3 [6] was “<=60%”; in the experiment on MCF7 [8], “<=50%”. Also, the inhibition constant Ki in experiment [1] was 0.016 µM; in [2] it was > 10 µM; in [3], 0.573 µM; in experiment [4], > 10 µM; at Mu-type opioid receptor, 0.056 µM. Moreover, the Ratio Ki in the experiment listed under Homo sapiens amounted to 35.
Consider `CN(CCCNC(=O)c1ccco1)Cc1ccccc1`, for which the Ki in experiment [1] was 1.07 µM; in experiment [2], > 10 µM; in [3], > 10 µM; in experiment [4], > 10 µM; on Mu-type opioid receptor it was > 10 µM.
For the molecule `CN(CCCNC(=O)c1ccc2ccccc2n1)Cc1ccccc1`, the IC50 came out at 1640 µM with MCF7 [5] (read-out: IC50) and 169 µM in the experiment with SK-BR-3 [7]. The Activity with SK-BR-3 [6] is 50%; with MCF7 [8] it was 30%. The inhibition constant (Ki) was 0.021 µM in experiment [1]; 3.58 µM in experiment [2]; 0.016 µM in [3]; > 10 µM in experiment [4]; 2.76 µM on Mu-type opioid receptor. Also, the Ratio Ki in the experiment listed under Homo sapiens is 0.7.
In the case of `O=C(CCCN1CCC(O)(c2ccc(Cl)cc2)CC1)c1ccc(F)cc1` [HALOPERIDOL], the IC50 with MCF7 [5] came to 68 µM; in the experiment with SK-BR-3 [7], 131 µM. Further, the Activity in the experiment on SK-BR-3 [6] was determined as 48%; in the experiment with MCF7 [8], 79%.
As to `COc1ccc(CN(C)CCCNC(=O)c2cc3ccccc3o2)cc1OC`, the IC50 in the experiment on MCF7 [5] (read-out: IC50) is 36 µM; with SK-BR-3 [7], 35 µM. Besides, the Activity result with SK-BR-3 [6] and in the experiment on MCF7 [8] was “<=60%” throughout. Also, the inhibition constant (Ki) is 0.046 µM in [1]; > 10 µM in experiment [2]; 0.375 µM in [3]; > 10 µM in experiment [4]; 2.9 µM on Mu-type opioid receptor. For the same molecule, the Ratio Ki in the experiment listed under Homo sapiens stood at 8.1.
Turning to `Fc1ccc(-n2cc(CCCCN3CCC4(CC3)OCc3ccccc34)c3ccccc32)cc1` [SIRAMESINE], the results for the IC50 in the experiment with MCF7 [5] (read-out: IC50) and with SK-BR-3 [7] were 13 µM and 14 µM, respectively. The Activity in the experiment on SK-BR-3 [6] is on record as 98%; with MCF7 [8] it was 96%.

A word on the Ki: it is the equilibrium dissociation constant of an inhibitor or competing ligand from its target. A word on the IC50: it is the concentration at which inhibition is half-maximal.
